# Test results taken from patent US12404279B2, “Deubiquitinase inhibitors and methods of use thereof” (Molecure S.A., priority 2021, dated 2025).
# Where a name gives a salt, the structure may show the parent alone.
# Target: full-length USP7 (Homo sapiens (Human), UniProt Q93009)
# Assay: Enzymatic assay to determine IC50 of USP7 inhibitors (Ubiquitin-Rhodamine 110 cleavage)
# Format: biochemical
# Conditions: 0.5 nM USP7, 0.5 μM Ubiquitin-Rhodamine 110, 45 min at 37° C.
# Experimental: For the inhibitors disclosed herein, their potency was measured using the following method.
# A 45 μl reaction volume containing full-length USP7 (0.5 nM) in 50 mM HEPES pH 7.5, 150 mM NaCl, 1 mM DTT, 1 mg/ml BSA and 0.05% Tween20 was assembled in wells of 96 well half area black flat bottom plates. Test compounds were first dissolved to 25 mM stocks in DMSO and subsequently introduced to enzyme 15 min after USP7 incubation with DTT at room temperature. The enzymatic reaction was started by adding 0.5 μM Ubiquitin-Rhodamine 110 (final concentration) and allowed to proceed for 45 min at 37° C., 250 RPM shaking before Rhodamine fluorescence (485 nm excitation/520 nm emission) was measured using Tecan Spark M10 plate reader.
# full-length USP7, sequence (Q93009 whole entry): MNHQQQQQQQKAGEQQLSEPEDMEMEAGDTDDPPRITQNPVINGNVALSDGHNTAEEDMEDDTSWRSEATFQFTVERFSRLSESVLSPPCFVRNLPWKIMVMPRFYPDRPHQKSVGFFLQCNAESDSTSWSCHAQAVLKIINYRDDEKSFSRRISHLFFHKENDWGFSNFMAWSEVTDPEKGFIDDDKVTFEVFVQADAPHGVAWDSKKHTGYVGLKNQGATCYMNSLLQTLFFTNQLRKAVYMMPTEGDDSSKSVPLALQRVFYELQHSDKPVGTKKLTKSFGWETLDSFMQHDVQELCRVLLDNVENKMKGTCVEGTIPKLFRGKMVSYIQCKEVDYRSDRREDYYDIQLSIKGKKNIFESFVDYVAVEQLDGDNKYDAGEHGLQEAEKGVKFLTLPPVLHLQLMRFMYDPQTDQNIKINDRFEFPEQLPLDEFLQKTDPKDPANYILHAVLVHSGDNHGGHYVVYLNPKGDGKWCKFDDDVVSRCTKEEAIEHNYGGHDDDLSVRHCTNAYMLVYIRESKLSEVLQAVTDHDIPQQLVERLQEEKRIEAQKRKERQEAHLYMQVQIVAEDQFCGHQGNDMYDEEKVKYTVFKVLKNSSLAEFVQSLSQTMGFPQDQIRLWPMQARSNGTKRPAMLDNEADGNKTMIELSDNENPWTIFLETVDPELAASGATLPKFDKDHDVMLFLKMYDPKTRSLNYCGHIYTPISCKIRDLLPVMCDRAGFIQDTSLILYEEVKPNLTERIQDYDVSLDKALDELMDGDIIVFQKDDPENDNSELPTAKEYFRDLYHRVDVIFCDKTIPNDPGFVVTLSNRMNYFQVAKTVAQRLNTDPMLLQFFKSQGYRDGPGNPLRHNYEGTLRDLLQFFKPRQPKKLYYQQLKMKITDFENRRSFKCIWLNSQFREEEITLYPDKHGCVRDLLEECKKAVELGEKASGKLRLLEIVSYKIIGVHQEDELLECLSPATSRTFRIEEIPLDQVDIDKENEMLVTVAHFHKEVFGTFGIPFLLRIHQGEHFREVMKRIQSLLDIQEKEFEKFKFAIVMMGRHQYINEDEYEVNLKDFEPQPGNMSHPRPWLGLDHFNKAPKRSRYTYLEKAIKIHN
row,Compound,IC50 [nM]
1,"3-((7-(3-(3,3-difluoroazetidine-1-carbonyl)-4,6-dimethylpyridin-2-yl)thieno[3,2-b]pyridin-2-yl)methyl)-6,6-dimethyl-3-azabicyclo[3.1.0]hexane-2,4-dione hydrochloride [Example 85]",1000 to 10000
2,"6,6-dimethyl-3-((7-(2-methyl-3-(pyrrolidin-3-ylamino)-6-(trifluoromethyl)pyridin-4-yl)thieno[3,2-b]pyridin-2-yl)methyl)-3-azabicyclo[3.1.0]hexane-2,4-dione 2,2,2-trifluoroacetate [Example 25]",< 500
3,"6,6-dimethyl-3-((7-(2-methyl-3-(pyrrolidin-3-ylmethyl)-6-(trifluoromethyl)pyridin-4-yl)thieno[3,2-b]pyridin-2-yl)methyl)-3-azabicyclo[3.1.0]hexane-2,4-dione 2,2,2-trifluoroacetate [Example 88]",< 500
4,"6-(2-((6,6-dimethyl-2,4-dioxo-3-azabicyclo[3.1.0]hexan-3-yl)methyl)thieno[3,2-b]pyridin-7-yl)-4-methyl-5-((S)-2-methylpiperazine-1-carbonyl)picolinonitrile hydrochloride [Example 47]",< 500
5,"Cc1nc(C(F)(F)F)cc(-c2ccnc3cc(CN4C(=O)C5C(C4=O)C5(C)C)sc23)c1OC1CCNC1 (racemic) [Example 21, 6,6-dimethyl-3-((7-(2-methyl-3-(pyrrolidin-3-yloxy)-6-(trifluoromethyl)pyridin-4-yl)thieno[3,2-b]pyridin-2-yl)methyl)-3-azabicyclo[3.1.0]hexane-2,4-dione 2,2,2-trifluoroacetate]",< 500
6,"Cc1nc(C(F)(F)F)cc(-c2ccnc3cc(CN4C(=O)C5C(C4=O)C5(C)C)sc23)c1NC(=O)C1CCNC1 (racemic) [Example 64, N-(4-(2-((6,6-dimethyl-2,4-dioxo-3-azabicyclo[3.1.0]hexan-3-yl)methyl)thieno[3,2-b]pyridin-7-yl)-2-methyl-6-(trifluoromethyl)pyridin-3-yl)pyrrolidine-3-carboxamide 2,2,2-trifluoroacetate]",1000 to 10000
7,"Cc1cc(C(F)(F)F)nc(-c2ccnc3cc(CN4C(=O)C5C(C4=O)C5(C)C)sc23)c1C(=O)N1CCC2CNCC21 (racemic) [Example 72, 6,6-dimethyl-3-((7-(4-methyl-3-(octahydropyrrolo[3,4-b]pyrrole-1-carbonyl)-6-(trifluoromethyl)pyridin-2-yl)thieno[3,2-b]pyridin-2-yl)methyl)-3-azabicyclo[3.1.0]hexane-2,4-dione dihydrochloride]",< 500
8,"Cc1cc(C(F)(F)F)nc(-c2ccnc3cc(CN4C(=O)C5C(C4=O)C5(C)C)sc23)c1CC1CNCCO1 (racemic) [Example 92, 6,6-dimethyl-3-((7-(4-methyl-3-(morpholin-2-ylmethyl)-6-(trifluoromethyl)pyridin-2-yl)thieno[3,2-b]pyridin-2-yl)methyl)-3-azabicyclo[3.1.0]hexane-2,4-dione 2,2,2-trifluoroacetate]",< 500
9,"Cc1cc(Cl)nc(-c2ccnc3cc(CN4C(=O)C5C(C4=O)C5(C)C)sc23)c1NC1CCCNC1 (racemic) [Example 129, 3-((7-(6-chloro-4-methyl-3-(piperidin-3-ylamino)pyridin-2-yl)thieno[3,2-b]pyridin-2-yl)methyl)-6,6-dimethyl-3-azabicyclo[3.1.0]hexane-2,4-dione tetrahydrochloride]",< 500
10,"Cc1cc(C(F)(F)F)nc(-c2ccnc3cc(CN4C(=O)C5C(C4=O)C5(C)C)sc23)c1C(=O)N1CCC(CNC(C)C)C1 (racemic) [Example 140, 3-((7-(3-(3-((isopropylamino)methyl)pyrrolidine-1-carbonyl)-4-methyl-6-(trifluoromethyl)pyridin-2-yl)thieno[3,2-b]pyridin-2-yl)methyl)-6,6-dimethyl-3-azabicyclo[3.1.0]hexane-2,4-dione trihydrochloride]",< 500
11,"Cc1cc(C(F)(F)F)nc(-c2ccnc3cc(CN4C(=O)N(C)C5(CC5)C4=O)sc23)c1NC1CCNC1 (racemic) [Example 145, 4-methyl-6-((7-(4-methyl-3-(pyrrolidin-3-ylamino)-6-(trifluoromethyl)pyridin-2-yl)thieno[3,2-b]pyridin-2-yl)methyl)-4,6-diazaspiro[2.4]heptane-5,7-dione dihydrochloride]",< 500
12,"Cc1ccnc(-c2ccnc3cc(CN4C(=O)C5C(C4=O)C5(C)C)sc23)c1C(O)[C@@H]1CNCCO1 (single isomer, unassigned) [Example 100, 2,2,2-trifluoroacetate]",1000 to 10000
13,"Cc1cc(C#N)nc(-c2ccnc3cc(CN4C(=O)C5C(C4=O)C5(C)C)sc23)c1OC1CCCNC1 (stereo not drawn) [Example 1, 6-(2-((6,6-dimethyl-2,4-dioxo-3-azabicyclo[3.1.0]hexan-3-yl)methyl)thieno[3,2-b]pyridin-7-yl)-4-methyl-5-(piperidin-3-yloxy)picolinonitrile 2,2,2-trifluoroacetate]",< 500

# Further lines, results first:
row,IC50 [nM],Compound
1,< 500,"Cc1cc(Cl)nc(-c2ccnc3cc(CN4C(=O)C5C(C4=O)C5(C)C)sc23)c1OC1CCNC1 (racemic) [Example 2, 3-((7-(6-chloro-4-methyl-3-(pyrrolidin-3-yloxy)pyridin-2-yl)thieno[3,2-b]pyridin-2-yl)methyl)-6,6-dimethyl-3-azabicyclo[3.1.0]hexane-2,4-dione hydrochloride]"
2,< 500,"Cc1cc(Cl)nc(-c2ccnc3cc(CN4C(=O)C5C(C4=O)C5(C)C)sc23)c1OC1CCCNC1 (racemic) [Example 3, 3-((7-(6-chloro-4-methyl-3-(piperidin-3-yloxy)pyridin-2-yl)thieno[3,2-b]pyridin-2-yl)methyl)-6,6-dimethyl-3-azabicyclo[3.1.0]hexane-2,4-dione hydrochloride]"
3,< 500,"Cc1cc(C(F)(F)F)nc(-c2ccnc3cc(CN4C(=O)C5C(C4=O)C5(C)C)sc23)c1CC1CNCCN1 (racemic) [Example 35, 6,6-dimethyl-3-((7-(4-methyl-3-(piperazin-2-ylmethyl)-6-(trifluoromethyl)pyridin-2-yl)thieno[3,2-b]pyridin-2-yl)methyl)-3-azabicyclo[3.1.0]hexane-2,4-dione hydrochloride]"
4,> 10000,"Cc1nc(C(F)(F)F)cc(-c2ccnc3cc(CN4C(=O)C5C(C4=O)C5(C)C)sc23)c1NC(=O)C1CCN(C(=O)C(F)(F)F)C1 (racemic) [Example 65, N-(4-(2-((6,6-dimethyl-2,4-dioxo-3-azabicyclo[3.1.0]hexan-3-yl)methyl)thieno[3,2-b]pyridin-7-yl)-2-methyl-6-(trifluoromethyl)pyridin-3-yl)-1-(2,2,2-trifluoroacetyl)pyrrolidine-3-carboxamide 2,2,2-trifluoroacetate]"
5,< 500,"Cc1nc(C(F)(F)F)cc(-c2ccnc3cc(CN4C(=O)C5C(C4=O)C5(C)C)sc23)c1CC1CNCCO1 (racemic) [Example 91, 6,6-dimethyl-3-((7-(2-methyl-3-(morpholin-2-ylmethyl)-6-(trifluoromethyl)pyridin-4-yl)thieno[3,2-b]pyridin-2-yl)methyl)-3-azabicyclo[3.1.0]hexane-2,4-dione 2,2,2-trifluoroacetate]"
6,< 500,"Cc1cc(C)c(NC2CCNC2)c(-c2ccnc3cc(CN4C(=O)C5C(C4=O)C5(C)C)sc23)n1 (racemic) [Example 124, 3-((7-(4,6-dimethyl-3-(pyrrolidin-3-ylamino)pyridin-2-yl)thieno[3,2-b]pyridin-2-yl)methyl)-6,6-dimethyl-3-azabicyclo[3.1.0]hexane-2,4-dione 2,2,2-trifluoroacetate]"
7,< 500,"Cc1nc(Cl)cc(-c2ccnc3cc(CN4C(=O)C5C(C4=O)C5(C)C)sc23)c1NC1CCNC1 (racemic) [Example 125, 3-((7-(6-chloro-2-methyl-3-(pyrrolidin-3-ylamino)pyridin-4-yl)thieno[3,2-b]pyridin-2-yl)methyl)-6,6-dimethyl-3-azabicyclo[3.1.0]hexane-2,4-dione 2,2,2-trifluoroacetate]"
8,500 to 1000,"Cc1cc(C(F)(F)F)nc(-c2ccnc3cc(CN4C(=O)C5C(C4=O)C5(C)C)sc23)c1C(=O)N1CCC(C)(N)C1 (racemic) [Example 137, 3-((7-(3-(3-amino-3-methylpyrrolidine-1-carbonyl)-4-methyl-6-(trifluoromethyl)pyridin-2-yl)thieno[3,2-b]pyridin-2-yl)methyl)-6,6-dimethyl-3-azabicyclo[3.1.0]hexane-2,4-dione trihydrochloride]"
9,< 500,"Cc1cc(C(F)(F)F)nc(-c2ccnc3cc(CN4C(=O)C5C(C4=O)C5(C)C)sc23)c1C(=O)N1CCC(CN)C1 (racemic) [Example 139, 3-((7-(3-(3-(aminomethyl)pyrrolidine-1-carbonyl)-4-methyl-6-(trifluoromethyl)pyridin-2-yl)thieno[3,2-b]pyridin-2-yl)methyl)-6,6-dimethyl-3-azabicyclo[3.1.0]hexane-2,4-dione trihydrochloride]"
10,< 500,"Cc1cc(Cl)nc(-c2ccnc3cc(CN4C(=O)C5C(C4=O)C5(C)C)sc23)c1O[C@H]1CCCNC1 (single isomer, unassigned) [Example 4, hydrochloride]"
11,< 500,"Cc1nc(C#N)cc(-c2ccnc3cc(CN4C(=O)C5C(C4=O)C5(C)C)sc23)c1C(=O)N1CCNC[C@@H]1C (stereo partly drawn) [Example 5, 4-(2-((6,6-dimethyl-2,4-dioxo-3-azabicyclo[3.1.0]hexan-3-yl)methyl)thieno[3,2-b]pyridin-7-yl)-6-methyl-5-((S)-2-methylpiperazine-1-carbonyl)picolinonitrile 2,2,2-trifluoroacetate]"
